Assays:
[1] = target: T1, ABL1(Y253F)-phosphorylated (Homo sapiens, UniProt P00519, Y253F); assay: KINOMEscan; type: binding; details: 1 μM of compound 4; read-out: POC
T1 construct: purchased Eurofins DiscoverX Corporation

CDK4 = CDK4 (Homo sapiens, UniProt P11802); assay: KINOMEscan; type: binding; details: 1 μM of compound 4; read-out: POC
PDPK1 = target: T2, PDPK1 (Homo sapiens, UniProt O15530); assay: KINOMEscan; type: binding; details: 1 μM of compound 4; read-out: POC
T2 construct: purchased Eurofins DiscoverX Corporation (KINOMEscan)
T2 sequence (O15530 whole entry): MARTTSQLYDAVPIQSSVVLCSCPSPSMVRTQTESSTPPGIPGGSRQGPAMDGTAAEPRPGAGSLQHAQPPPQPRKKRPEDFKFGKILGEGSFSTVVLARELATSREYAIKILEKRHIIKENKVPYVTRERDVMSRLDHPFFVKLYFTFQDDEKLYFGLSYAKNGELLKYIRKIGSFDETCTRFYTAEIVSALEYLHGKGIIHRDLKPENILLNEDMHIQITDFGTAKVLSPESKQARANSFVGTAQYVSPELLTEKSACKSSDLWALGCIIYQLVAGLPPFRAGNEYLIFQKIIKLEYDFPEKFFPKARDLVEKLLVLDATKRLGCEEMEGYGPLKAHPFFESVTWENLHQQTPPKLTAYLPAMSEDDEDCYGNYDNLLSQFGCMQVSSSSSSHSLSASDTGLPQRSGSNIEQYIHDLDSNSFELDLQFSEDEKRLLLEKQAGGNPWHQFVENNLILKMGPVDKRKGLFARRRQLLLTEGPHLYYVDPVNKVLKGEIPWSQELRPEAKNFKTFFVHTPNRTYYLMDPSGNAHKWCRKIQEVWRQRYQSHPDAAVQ

YANK2 = target: T3, YANK2 (Homo sapiens, UniProt Q9NY57); assay: KINOMEscan; type: binding; details: 1 μM of compound 4; read-out: POC
T3 construct: purchased Eurofins DiscoverX

EPHB1 = target: T4, EPHB1 (Homo sapiens, UniProt P54762); assay: KINOMEscan; type: binding; details: 1 μM of compound 4; read-out: POC
T4 construct: purchased Eurofins DiscoverX (KINOMEscan service)

PIK3CA(C420R) = PIK3CA(C420R) (Homo sapiens, UniProt P42336, C420R); assay: KINOMEscan; type: binding; details: 1 μM of compound 4; read-out: POC
WNK3 = target: T5, WNK3 (Homo sapiens, UniProt Q9BYP7); assay: KINOMEscan; type: binding; details: 1 μM of compound 4; read-out: POC
T5 construct: purchased Eurofins DiscoverX

FGFR3 = target: T6, FGFR3 (Homo sapiens, UniProt P22607); assay: KINOMEscan; type: binding; details: 1 μM of compound 4; read-out: POC
T6 construct: purchased Eurofins DiscoverX Corporation

RIPK2 = target: T7, RIPK2 (Homo sapiens, UniProt O43353); assay: KINOMEscan; type: binding; details: 1 μM of compound 4; read-out: POC
T7 construct: purchased Eurofins DiscoverX Corporation (KINOMEscan screening service)

INSRR = INSRR (Homo sapiens, UniProt P14616); assay: KINOMEscan; type: binding; details: 1 μM of compound 4; read-out: POC
Sequence of INSRR (P14616 27-1297): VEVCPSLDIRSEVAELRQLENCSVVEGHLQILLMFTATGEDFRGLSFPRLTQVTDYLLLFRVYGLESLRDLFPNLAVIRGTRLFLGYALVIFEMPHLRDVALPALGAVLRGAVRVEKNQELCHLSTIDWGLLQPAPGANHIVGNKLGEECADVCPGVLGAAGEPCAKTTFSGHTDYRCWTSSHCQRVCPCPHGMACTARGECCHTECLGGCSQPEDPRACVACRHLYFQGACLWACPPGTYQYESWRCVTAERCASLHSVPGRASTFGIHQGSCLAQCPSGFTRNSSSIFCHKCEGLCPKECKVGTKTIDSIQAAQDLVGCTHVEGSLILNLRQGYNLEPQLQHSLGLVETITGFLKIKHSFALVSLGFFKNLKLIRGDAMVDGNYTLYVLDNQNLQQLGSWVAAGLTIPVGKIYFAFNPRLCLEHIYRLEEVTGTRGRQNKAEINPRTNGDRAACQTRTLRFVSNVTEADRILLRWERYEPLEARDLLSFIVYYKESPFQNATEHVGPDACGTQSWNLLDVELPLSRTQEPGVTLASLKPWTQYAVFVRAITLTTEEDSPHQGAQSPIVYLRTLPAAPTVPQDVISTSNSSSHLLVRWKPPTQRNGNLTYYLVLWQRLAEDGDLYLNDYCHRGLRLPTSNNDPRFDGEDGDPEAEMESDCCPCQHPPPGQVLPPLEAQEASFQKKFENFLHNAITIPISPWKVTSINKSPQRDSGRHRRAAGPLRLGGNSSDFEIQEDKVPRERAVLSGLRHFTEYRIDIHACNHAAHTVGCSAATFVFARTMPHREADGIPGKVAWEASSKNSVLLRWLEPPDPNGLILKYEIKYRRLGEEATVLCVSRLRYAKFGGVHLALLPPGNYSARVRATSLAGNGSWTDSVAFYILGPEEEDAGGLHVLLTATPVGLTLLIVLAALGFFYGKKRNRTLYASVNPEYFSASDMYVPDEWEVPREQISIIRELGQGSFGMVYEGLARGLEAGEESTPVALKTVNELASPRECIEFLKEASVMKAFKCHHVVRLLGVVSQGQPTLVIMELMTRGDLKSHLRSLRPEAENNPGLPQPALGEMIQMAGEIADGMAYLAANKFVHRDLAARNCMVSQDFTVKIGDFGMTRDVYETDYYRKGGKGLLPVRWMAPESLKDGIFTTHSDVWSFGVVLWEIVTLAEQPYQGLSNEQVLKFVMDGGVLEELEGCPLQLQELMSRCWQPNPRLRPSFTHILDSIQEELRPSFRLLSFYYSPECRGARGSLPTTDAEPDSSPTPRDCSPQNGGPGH

CDK7 = CDK7 (Homo sapiens, UniProt P50613); assay: KINOMEscan; type: binding; details: 1 μM of compound 4; read-out: POC
CDC2L5 = CDC2L5 (Homo sapiens, UniProt Q14004); assay: KINOMEscan; type: binding; details: 1 μM of compound 4; read-out: POC
Sequence of CDC2L5 (Q14004 whole entry): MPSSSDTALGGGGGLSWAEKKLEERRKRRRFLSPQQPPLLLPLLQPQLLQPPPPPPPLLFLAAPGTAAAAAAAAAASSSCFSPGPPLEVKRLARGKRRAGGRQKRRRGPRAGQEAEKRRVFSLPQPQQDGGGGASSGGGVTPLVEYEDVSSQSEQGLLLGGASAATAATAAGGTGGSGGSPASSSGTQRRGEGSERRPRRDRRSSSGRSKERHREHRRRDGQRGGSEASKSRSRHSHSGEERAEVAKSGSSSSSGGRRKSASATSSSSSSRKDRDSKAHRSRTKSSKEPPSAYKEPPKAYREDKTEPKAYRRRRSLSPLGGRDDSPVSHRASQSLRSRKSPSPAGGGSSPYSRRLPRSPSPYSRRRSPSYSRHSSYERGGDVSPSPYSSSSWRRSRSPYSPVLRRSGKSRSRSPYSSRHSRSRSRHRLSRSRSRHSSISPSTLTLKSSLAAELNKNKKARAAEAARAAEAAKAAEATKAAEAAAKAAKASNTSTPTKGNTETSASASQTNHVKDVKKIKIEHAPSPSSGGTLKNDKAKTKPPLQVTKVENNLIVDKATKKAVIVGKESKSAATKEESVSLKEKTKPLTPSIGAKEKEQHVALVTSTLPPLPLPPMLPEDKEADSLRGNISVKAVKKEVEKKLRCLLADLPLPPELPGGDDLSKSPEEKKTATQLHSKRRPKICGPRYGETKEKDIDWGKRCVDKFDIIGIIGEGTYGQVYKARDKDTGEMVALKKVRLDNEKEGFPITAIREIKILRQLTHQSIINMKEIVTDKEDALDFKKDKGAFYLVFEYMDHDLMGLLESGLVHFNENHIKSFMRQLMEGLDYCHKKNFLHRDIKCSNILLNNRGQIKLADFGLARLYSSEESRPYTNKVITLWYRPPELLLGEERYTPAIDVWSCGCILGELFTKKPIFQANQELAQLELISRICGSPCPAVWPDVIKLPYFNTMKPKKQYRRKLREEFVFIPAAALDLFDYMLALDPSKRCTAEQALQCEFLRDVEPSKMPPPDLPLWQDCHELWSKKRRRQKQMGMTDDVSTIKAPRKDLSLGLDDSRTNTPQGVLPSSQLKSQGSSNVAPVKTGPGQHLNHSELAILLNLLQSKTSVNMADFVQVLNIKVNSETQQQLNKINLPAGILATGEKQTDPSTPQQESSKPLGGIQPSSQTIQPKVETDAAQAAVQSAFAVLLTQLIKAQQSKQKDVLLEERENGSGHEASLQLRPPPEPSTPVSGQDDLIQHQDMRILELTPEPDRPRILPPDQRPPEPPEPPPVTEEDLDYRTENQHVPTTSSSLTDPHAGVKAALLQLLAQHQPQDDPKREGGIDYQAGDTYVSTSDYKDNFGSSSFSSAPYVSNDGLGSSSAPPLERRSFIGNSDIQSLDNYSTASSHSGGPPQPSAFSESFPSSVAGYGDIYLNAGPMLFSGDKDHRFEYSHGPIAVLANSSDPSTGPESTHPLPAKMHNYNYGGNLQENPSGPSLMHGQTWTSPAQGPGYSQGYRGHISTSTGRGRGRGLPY

HIPK4 = target: T8, HIPK4 (Homo sapiens, UniProt Q8NE63); assay: KINOMEscan; type: binding; details: 1 μM of compound 4; read-out: POC
T8 construct: purchased Eurofins DiscoverX Corporation

CSF1R = CSF1R (Homo sapiens, UniProt P07333); assay: KINOMEscan; type: binding; details: 1 μM of compound 4; read-out: POC
DMPK2 = DMPK2 (Homo sapiens, UniProt Q6DT37); assay: KINOMEscan; type: binding; details: 1 μM of compound 4; read-out: POC
TRKA = target: T9, TRKA (Homo sapiens, UniProt P04629); assay: KINOMEscan; type: binding; details: 1 μM of compound 4; read-out: POC
T9 construct: purchased Eurofins DiscoverX Corporation

CLK4 = CLK4 (Homo sapiens, UniProt Q9HAZ1); assay: KINOMEscan; type: binding; details: 1 μM of compound 4; read-out: POC
Sequence of CLK4 (Q9HAZ1 whole entry): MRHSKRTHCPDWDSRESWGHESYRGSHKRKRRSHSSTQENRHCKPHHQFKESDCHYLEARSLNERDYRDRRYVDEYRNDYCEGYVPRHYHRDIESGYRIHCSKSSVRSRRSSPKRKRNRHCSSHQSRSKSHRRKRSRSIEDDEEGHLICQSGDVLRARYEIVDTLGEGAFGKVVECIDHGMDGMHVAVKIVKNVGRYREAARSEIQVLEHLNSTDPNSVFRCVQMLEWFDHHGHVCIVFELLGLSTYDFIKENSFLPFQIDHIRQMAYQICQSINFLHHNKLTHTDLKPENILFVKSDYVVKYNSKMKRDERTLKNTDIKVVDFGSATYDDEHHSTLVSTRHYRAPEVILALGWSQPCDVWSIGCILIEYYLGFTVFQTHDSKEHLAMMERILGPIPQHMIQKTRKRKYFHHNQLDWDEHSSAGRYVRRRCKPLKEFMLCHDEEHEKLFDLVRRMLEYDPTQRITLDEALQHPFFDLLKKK

TGFBR2 = target: T10, TGFBR2 (Homo sapiens, UniProt P37173); assay: KINOMEscan; type: binding; details: 1 μM of compound 4; read-out: POC
T10 construct: purchased Eurofins DiscoverX Corporation

CSF1R-autoinhibited = CSF1R-autoinhibited (Homo sapiens, UniProt P07333); assay: KINOMEscan; type: binding; details: 1 μM of compound 4; read-out: POC
YSK1 = target: T11, YSK1 (Homo sapiens, UniProt O00506); assay: KINOMEscan; type: binding; details: 1 μM of compound 4; read-out: POC
T11 construct: purchased Eurofins DiscoverX

LKB1 = LKB1 (Homo sapiens, UniProt Q15831); assay: KINOMEscan; type: binding; details: 1 μM of compound 4; read-out: POC
MAP4K3 = MAP4K3 (Homo sapiens, UniProt Q8IVH8); assay: KINOMEscan; type: binding; details: 1 μM of compound 4; read-out: POC
468 kinases = assay: KINOMEscan selectivity screening; type: binding; details: 1 μM
CTK = CTK (Homo sapiens, UniProt P42679); assay: KINOMEscan; type: binding; details: 1 μM of compound 4; read-out: POC
ROS1 = target: T12, ROS1 (Homo sapiens, UniProt P08922); assay: KINOMEscan; type: binding; details: 1 μM of compound 4; read-out: POC
T12 construct: purchased Eurofins DiscoverX Corporation (KINOMEscan screening service)

MAPKAPK5 = MAPKAPK5 (Homo sapiens, UniProt Q8IW41); assay: KINOMEscan; type: binding; details: 1 μM of compound 4; read-out: POC
LYN = LYN (Homo sapiens, UniProt P07948); assay: KINOMEscan; type: binding; details: 1 μM of compound 4; read-out: POC
PIP5K2C = PIP5K2C (Homo sapiens, UniProt Q8TBX8); assay: KINOMEscan; type: binding; details: 1 μM of compound 4; read-out: POC
EGFR WT = target: T13, EGFR WT (Homo sapiens, UniProt P00533); assay: Time-dependent kinase inhibition assay (Sox-based substrate); type: biochemical
T13 construct: EGFR WT, cytoplasmic domain (669-1210), GST-tagged, Carna; purchased Carna 08-115
T13 sequence (P00533 669-1210): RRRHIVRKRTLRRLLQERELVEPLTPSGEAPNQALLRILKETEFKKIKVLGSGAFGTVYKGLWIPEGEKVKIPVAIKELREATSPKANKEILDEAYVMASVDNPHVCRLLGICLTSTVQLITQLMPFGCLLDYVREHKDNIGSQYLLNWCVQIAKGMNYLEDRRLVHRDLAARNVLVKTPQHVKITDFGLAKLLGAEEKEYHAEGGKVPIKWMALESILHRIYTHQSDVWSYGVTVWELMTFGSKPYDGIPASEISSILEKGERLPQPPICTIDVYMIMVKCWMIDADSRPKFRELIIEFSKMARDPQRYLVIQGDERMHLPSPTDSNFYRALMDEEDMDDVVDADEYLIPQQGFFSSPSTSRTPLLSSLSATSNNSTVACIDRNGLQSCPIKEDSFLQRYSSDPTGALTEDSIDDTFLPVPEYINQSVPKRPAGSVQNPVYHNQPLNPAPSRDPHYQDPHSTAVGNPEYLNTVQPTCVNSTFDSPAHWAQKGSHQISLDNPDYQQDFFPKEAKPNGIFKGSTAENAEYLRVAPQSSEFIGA
Method: (§1) Time-dependent Kinase Inhibition Assays. Biochemical assays were performed with commercially available EGFR WT, cytoplasmic domain (669-1210), GST-tagged, Carna (Cat #/Lot #: 08-115/21CBS-0127H), EGFR [T790M/L858R] and EGFR [L858R], cytoplasmic domain (669-1210), GST-tagged, Carna (Cat #/Lot #: 08-510/12CBS-0765M). […] BSA was not included in this experiment to prevent interference with irreversible inhibitor characterization via off-target binding. All reactions were run for 240 minutes at 30° C. Time-dependent fluorescence from the Sox-based substrate was monitored in PerkinElmer ProxiPlate-384 Plus, white shallow well microplates (Cat. #6008280) Biotek Synergy Neo 2 microplate reader with excitation (360 nm) and emission (485 nm) wavelengths. 2 was dosed between 0 and 10 μM in 24-point curves with 1.5-fold dilutions. Fluorescence, determined with identical reactions but lacking purified enzyme or crude cell lysate was subtracted from the total fluorescence signal for each time point, with both determined in duplicate, to obtain corrected relative fluorescence units (RFU). Corrected RFU values then were plotted vs. time and the reaction velocity for the first ~40 min (initial reaction rates) were determined from the slope using GraphPad Prism (La Jolla, CA) with units of RFU/min.

EGFR [T790M/L858R] = target: T14, EGFR [T790M/L858R] (Homo sapiens, UniProt P00533, L858R/T790M); assay: as above; type: biochemical
T14 construct: EGFR [T790M/L858R] and EGFR [L858R], cytoplasmic domain (669-1210), GST-tagged, Carna; GST; purchased Carna 08-510
T14 sequence (P00533 669-1210 T790M/L858R): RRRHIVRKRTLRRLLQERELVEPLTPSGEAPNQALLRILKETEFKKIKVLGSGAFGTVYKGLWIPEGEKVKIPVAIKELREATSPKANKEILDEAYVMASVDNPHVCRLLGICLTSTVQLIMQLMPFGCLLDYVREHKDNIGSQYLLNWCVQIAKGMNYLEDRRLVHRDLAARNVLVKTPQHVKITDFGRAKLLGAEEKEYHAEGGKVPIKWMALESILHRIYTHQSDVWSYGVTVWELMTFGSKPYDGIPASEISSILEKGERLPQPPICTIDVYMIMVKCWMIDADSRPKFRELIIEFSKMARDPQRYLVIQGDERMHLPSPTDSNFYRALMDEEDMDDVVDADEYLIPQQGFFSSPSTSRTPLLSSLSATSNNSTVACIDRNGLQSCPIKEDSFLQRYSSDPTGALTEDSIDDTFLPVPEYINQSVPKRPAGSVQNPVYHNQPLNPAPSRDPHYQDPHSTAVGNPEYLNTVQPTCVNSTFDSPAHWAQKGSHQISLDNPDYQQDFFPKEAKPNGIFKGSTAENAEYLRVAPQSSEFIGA
Method: as §1

C=CC(=O)Nc1ccc(OC)c(Nc2cc(-c3[nH]c(CC)nc3-c3cccc(NC(=O)c4cccc5c4NC(=O)c4ccccc4N5)c3)ccn2)c1 [Compound 4, N-(3-(5-(2-((5-Acrylamido-2-methoxyphenyl)amino)pyridin-4-yl)-2-ethyl-1H-imidazol-4-yl)phenyl)-11-oxo-10,11-dihydro-5H-dibenzo[b,e][1,4]diazepine-9-carboxamide]
remaining binding at 1 µM [1]: 72%
remaining binding at 1 µM (CDK4): 100%
remaining binding at 1 µM (PDPK1): 84%
remaining binding at 1 µM (YANK2): 63%
remaining binding at 1 µM (EPHB1): 92%
remaining binding at 1 µM (PIK3CA(C420R)): 66%
remaining binding at 1 µM (WNK3): 78%
remaining binding at 1 µM (FGFR3): 94%
remaining binding at 1 µM (RIPK2): 62%
remaining binding at 1 µM (INSRR): 87%
remaining binding at 1 µM (CDK7): 49%
remaining binding at 1 µM (CDC2L5): 74%
remaining binding at 1 µM (HIPK4): 92%
remaining binding at 1 µM (CSF1R): 100%
remaining binding at 1 µM (DMPK2): 0%
remaining binding at 1 µM (TRKA): 77%
remaining binding at 1 µM (CLK4): 100%
remaining binding at 1 µM (TGFBR2): 75%
remaining binding at 1 µM (CSF1R-autoinhibited): 69%
remaining binding at 1 µM (YSK1): 76%
remaining binding at 1 µM (LKB1): 100%
remaining binding at 1 µM (MAP4K3): 9.5%
S (35) kinome selectivity (468 kinases): 0.084
remaining binding at 1 µM (CTK): 54%
remaining binding at 1 µM (ROS1): 80%
remaining binding at 1 µM (MAPKAPK5): 100%
remaining binding at 1 µM (LYN): 22%
remaining binding at 1 µM (PIP5K2C): 66%
Ki (EGFR WT): 1.2 ± 0.04 µM
kinact (EGFR WT): 0.003 s⁻¹
kinact/KI (EGFR WT): 2500 ± 10 M⁻¹ s⁻¹
Ki (EGFR [T790M/L858R]; read-out: KI, LRTM): 1.6 ± 0.1 µM
kinact (EGFR [T790M/L858R]; read-out: kinact, LRTM (converted)): 0.00167 s⁻¹
kinact/KI (EGFR [T790M/L858R]; read-out: kinact/KI, LRTM): 1070 ± 40 M⁻¹ s⁻¹

Reference: patent publication US20260224588A1, “BENZODIAZEPINONE-DERIVED INHIBITORS OF EGFR AND HER2” (The Research Foundation for the State University of New York, priority 2023, published 2026)
